Structure (SMILES) | melting point
Cc1nc(N2CCN(Cc3ccc(F)cc3)C2=O)sc1C(=O)N(C)C [Example 32.22, 2-(3-(4-fluorobenzyl)-2-oxoimidazolidin-1-yl)-N,N,4-trimethylthiazole-5-carboxamide] | 162 to 164 °C
Cc1nc(N2CCN(Cc3cccc(C(F)(F)F)c3)C2=O)sc1C(=O)NCc1cccnc1 [Example 9.43, 4-methyl-2-(2-oxo-3-(3-(trifluoromethyl)benzyl)imidazolidin-1-yl)-N-(pyridin-3-ylmethyl)thiazole-5-carboxamide] | 175 to 176 °C
Cc1nc(N2CCN(Cc3ccc(OC(F)(F)F)cc3)C2=O)sc1C(=O)NCC1CC1 [Example 8.12, N-(cyclopropylmethyl)-4-methyl-2-(2-oxo-3-(4-(trifluoromethoxy)benzyl)imidazolidin-1-yl)thiazole-5-carboxamide] | 184 to 186 °C
Cc1nc(N2CCN(CCC3CC3)C2=O)sc1C(=O)NCc1ccc(F)cc1 [Example 9.18, 2-(3-(2-cyclopropylethyl)-2-oxoimidazolidin-1-yl)-N-(4-fluorobenzyl)-4-methylthiazole-5-carboxamide] | 122 to 123 °C
Cc1nc(N2CCN(c3ccccc3)C2=O)sc1C(=O)NCc1ccccc1 [Example 7, N-benzyl-4-methyl-2-(2-oxo-3-phenylimidazolidin-1-yl)thiazole-5-carboxamide] | 234 to 236 °C
Cc1cc(-n2cnn(Cc3ccc(C(F)(F)F)cc3)c2=O)sc1C(=O)NCc1cccnc1 [Example 31.3, 3-methyl-5-(5-oxo-1-(4-(trifluoromethyl)benzyl)-1H-1,2,4-triazol-4(5H)-yl)-N-(pyridin-3-ylmethyl)thiophene-2-carboxamide] | 176 to 178 °C
Cc1nc(-n2cnn(Cc3ccc(F)cc3)c2=O)sc1C(=O)NCc1ncco1 [Example 21.8, 2-(1-(4-fluorobenzyl)-5-oxo-1H-1,2,4-triazol-4(5H)-yl)-4-methyl-N-(oxazol-2-ylmethyl)thiazole-5-carboxamide] | 152 to 153 °C
Cc1nc(N2CCN(Cc3ccccc3)C2=O)sc1C(=O)NCc1ccccc1 [Example 8, N-benzyl-2-(3-benzyl-2-oxoimidazolidin-1-yl)-4-methylthiazole-5-carboxamide] | 169 to 171 °C
Cc1cc(N2CCN(Cc3ccc(C(N)=O)cc3)C2=O)sc1C(=O)NCc1cccnc1 [Example 55.2, 5-(3-(4-carbamoylbenzyl)-2-oxoimidazolidin-1-yl)-3-methyl-N-(pyridin-3-ylmethyl)thiophene-2-carboxamide] | 188 °C (dec.)
Cc1nc(-n2cnn(Cc3ccc(F)cc3)c2=O)sc1C(=O)NCc1cnn(C)c1 [Example 21.10, 2-(1-(4-fluorobenzyl)-5-oxo-1H-1,2,4-triazol-4(5H)-yl)-4-methyl-N-((1-methyl-1H-pyrazol-4-yl)methyl)thiazole-5-carboxamide] | 205 to 206 °C
Cc1nc(N2CCN(CC3CC3)C2=O)sc1C(=O)NCc1ccccc1 [Example 9.14, N-benzyl-2-(3-(cyclopropylmethyl)-2-oxoimidazolidin-1-yl)-4-methylthiazole-5-carboxamide] | 142 to 143 °C
Cc1nc(N2CCN(Cc3ccccc3)S2(=O)=O)sc1C(=O)NCc1ccccc1 [Example 27.1, N-benzyl-2-(5-benzyl-1,1-dioxido-1,2,5-thiadiazolidin-2-yl)-4-methyl-1,3-thiazole-5-carboxamide] | 135 to 137 °C
Cc1cc(-n2cnn(Cc3ccc(F)cc3)c2=O)sc1C(=O)NCc1ncco1 [Example 31.6, 5-(1-(4-fluorobenzyl)-5-oxo-1H-1,2,4-triazol-4(5H)-yl)-3-methyl-N-(oxazol-2-ylmethyl)thiophene-2-carboxamide] | 163 to 165 °C
CCOC(=O)c1sc(N2CCN(Cc3ccc(C(F)(F)F)cc3)C2=O)nc1C [Example 5.2, ethyl 4-methyl-2-(2-oxo-3-(4-(trifluoromethyl)benzyl)imidazolidin-1-yl)thiazole-5-carboxylate] | 126 to 127 °C
Cc1nc(N2CCN(Cc3ccc(F)cc3)C2=O)sc1C(=O)NCc1ccc(C(F)F)o1 [Example 9.44, N-((5-(difluoromethyl)furan-2-yl)methyl)-2-(3-(4-fluorobenzyl)-2-oxoimidazolidin-1-yl)-4-methylthiazole-5-carboxamide] | 173 to 174 °C
Cc1nc(N2CCN(Cc3ccccc3)C2=O)sc1C(=O)NCc1cc(F)ccc1F [Example 9.2, 2-(3-benzyl-2-oxoimidazolidin-1-yl)-N-(2,5-difluorobenzyl)-4-methylthiazole-5-carboxamide] | 176 to 177 °C
Cc1nc(N2CCN(C(=O)c3ccc(F)cc3)C2=O)sc1C(=O)NCc1ccccc1 [Example 34, N-benzyl-2-(3-(4-fluorobenzoyl)-2-oxoimidazolidin-1-yl)-4-methylthiazole-5-carboxamide] | 130 to 132 °C
Cc1nc(N2CCN(Cc3ccc4nonc4c3)C2=O)sc1C(=O)NCc1cccnc1 [Example 32.6, 2-(3-(benzo[c][1,2,5]oxadiazol-5-ylmethyl)-2-oxoimidazolidin-1-yl)-4-methyl-N-(pyridin-3-ylmethyl)thiazole-5-carboxamide] | 110 to 112 °C

Structure (SMILES) | melting point
CCCN1CCN(c2nc(C)c(C(=O)NCc3cccnc3)s2)C1=O [Example 9.40, 4-methyl-2-(2-oxo-3-propylimidazolidin-1-yl)-N-(pyridin-3-ylmethyl)thiazole-5-carboxamide] | 109 to 111 °C
Cc1nc(N2CCN(Cc3ccccc3)C2=O)sc1C(=O)O [Example 6.2, 2-(3-benzyl-2-oxoimidazolidin-1-yl)-4-methylthiazole-5-carboxylic acid] | 248 to 249 °C
Cc1csc(N2CCN(Cc3ccc(C(F)(F)F)cc3)C2=O)n1 [Example 5.14, 1-(4-methylthiazol-2-yl)-3-(4-(trifluoromethyl)benzyl)imidazolidin-2-one] | 102 to 103 °C
Cc1nc(N2CCN(CC3CCC3)C2=O)sc1C(=O)NCc1cccnc1 [Example 9.37, 2-(3-(cyclobutylmethyl)-2-oxoimidazolidin-1-yl)-4-methyl-N-(pyridin-3-ylmethyl)thiazole-5-carboxamide] | 136 to 137 °C
Cc1nc(N2CCN(Cc3ccccc3)C2=O)sc1C(=O)NCc1ccc(F)cc1 [Example 9, 2-(3-benzyl-2-oxoimidazolidin-1-yl)-N-(4-fluorobenzyl)-4-methylthiazole-5-carboxamide] | 147 to 148 °C
Cc1cc(-c2sc(N3CCN(Cc4ccc(C(=O)N5CCCCC5)cc4)C3=O)nc2C)n[nH]1 [Example 40, 1-(4-methyl-5-(3-methyl-1H-pyrazol-5-yl)thiazol-2-yl)-3-(4-(piperidine-1-carbonyl)benzyl)imidazolidin-2-one] | 182 to 183 °C
COC(=O)c1cnc(N2CCNC2=O)s1 [Example 3.1, methyl 2-(2-oxoimidazolidin-1-yl)thiazole-5-carboxylate] | 205 to 208 °C
Cc1nc(N2CCN(Cc3ccc(C(F)(F)F)cc3)C2=O)sc1C(=O)NCc1cccnc1 [Example 9.12, 4-methyl-2-(2-oxo-3-(4-(trifluoromethyl)benzyl)imidazolidin-1-yl)-N-(pyridin-3-ylmethyl)thiazole-5-carboxamide] | 107 to 108 °C
Cc1nc(N2CCN(Cc3ccc(F)cc3)C2=O)sc1C(=O)NCc1ncco1 [Example 32.11, 2-(3-(4-fluorobenzyl)-2-oxoimidazolidin-1-yl)-4-methyl-N-(oxazol-2-ylmethyl)thiazole-5-carboxamide] | 187 to 189 °C
Cc1cnc(CNC(=O)c2sc(-n3cnn(Cc4ccc(F)cc4)c3=O)nc2C)cn1 [Example 21.15, 2-(1-(4-fluorobenzyl)-5-oxo-1H-1,2,4-triazol-4(5H)-yl)-4-methyl-N-((5-methylpyrazin-2-yl)methyl)thiazole-5-carboxamide] | 188 to 189 °C
Cc1nc(N2CCN(CCC3CC3)C2=O)sc1C(=O)NCc1ccccc1 [Example 9.17, N-benzyl-2-(3-(2-cyclopropylethyl)-2-oxoimidazolidin-1-yl)-4-methylthiazole-5-carboxamide] | 137 to 138 °C
Cc1nc(-n2cnn(CCOC(=O)NCc3ccc(F)cc3)c2=O)sc1C(=O)NCc1cccnc1 [Example 48, 2-(4-(4-methyl-5-(pyridin-3-ylmethylcarbamoyl)thiazol-2-yl)-5-oxo-4,5-dihydro-1H-1,2,4-triazol-1-yl)ethyl 4-fluorobenzylcarbamate] | 149 to 150 °C
Cc1nc(-n2ccn(Cc3ccc(F)cc3)c2=O)sc1C(=O)NCc1cccnc1 [Example 17.2, 2-(3-(4-fluorobenzyl)-2-oxo-2,3-dihydro-1H-imidazol-1-yl)-4-methyl-N-(pyridin-3-ylmethyl)thiazole-5-carboxamide] | 158 to 159 °C
Cc1cc(N2CCN(CCc3ccccc3)C2=O)sc1C(=O)NCc1cccnc1 [Example 15.4, 3-methyl-5-(2-oxo-3-phenethylimidazolidin-1-yl)-N-(pyridin-3-ylmethyl)thiophene-2-carboxamide] | 95 to 97 °C
Cc1nc(N2CCN(Cc3ccc(OC(F)(F)F)cc3)C2=O)sc1C(=O)Nc1ccccc1 [Example 9.30, 4-methyl-2-(2-oxo-3-(4-(trifluoromethoxy)benzyl)imidazolidin-1-yl)-N-phenylthiazole-5-carboxamide] | 187 to 188 °C
CCOC(=O)c1sc(N2C[C@@H](Cc3ccccc3)NC2=O)nc1C [Example 11, (R)-ethyl 2-(4-benzyl-2-oxoimidazolidin-1-yl)-4-methylthiazole-5-carboxylate] | 102 to 103 °C
CCNC(=O)c1sc(N2CCN(Cc3ccc(OC(F)(F)F)cc3)C2=O)nc1C [Example 8.2, N-ethyl-4-methyl-2-(2-oxo-3-(4-(trifluoromethoxy)benzyl)imidazolidin-1-yl)thiazole-5-carboxamide] | 218 to 219 °C
Cc1nc(-n2cnn(Cc3ccc(F)cc3)c2=O)sc1C(=O)NCc1cc[nH]n1 [Example 21.9, N-((1H-pyrazol-3-yl)methyl)-2-(1-(4-fluorobenzyl)-5-oxo-1H-1,2,4-triazol-4(5H)-yl)-4-methylthiazole-5-carboxamide] | 178 to 179 °C

— US8293768B2, “Organic compounds” (Novartis AG, priority 2006, dated 2012)
